Test results taken from article PMC3775761, “Structure-Activity Relationships of FMRF-NH2 Peptides Demonstrate A Role for the Conserved C Terminus and Unique N-Terminal Extension in Modulating Cardiac Contractility” (PLoS ONE, 2013).
Where two headings read alike, the source gives them in different places.

Legend:
[1] = test system: FMRFa-R; conditions: expressed FMRFa-R protein, cited from earlier work
Description: In contrast, when the small, non-aromatic residue A was substituted for F, strong contacts which anchored FMRF-NH2 in the FMRFa-R binding pocket were lost, which substantially weakened ligand-receptor interactions (Figure 5, Tables 5 and 6). In addition, the F ... || Next, the effect of the analog SDNAMRF-NH2 was measured on heart rate at 1 µM. SDNAMRF-NH2 increased adult heart rate by 48±10%, a significant effect similar to SDNFMRF-NH2 (Figure 12, Table 14). The effect of the peptide analog was analyzed in adult because it is a developmental stage in which a robust response occurs which thus allows for subtle changes to be observed. […] Past studies analyzed the effects of some or all of these peptides in a bioassay; yet no report to date investigated th ...

[2] = test system: adult, larval, and pupal heart; assay: in vivo semi-isolated heart rate assay; set-up: species or system Drosophila melanogaster; conditions: peptide 1 µM; for % increase in heart rate, Adult: adult heart (1 day adults); for % increase in heart rate, Adult / % increase in heart rate, Larval / % increase in heart rate, Pupal: maximum response within 10-minute recording, mean ± S.E.M., n≥6, basal heart rate = 100%; for % increase in heart rate, Larval: larval heart (wandering 3rd instar larvae); for % increase in heart rate, Pupal: pupal heart (white prepupae)
Description: D. melanogaster Oregon R strain flies were maintained on cornmeal molasses media at 24°C under a 12 hour light/dark cycle. Animals analyzed were wandering 3rd instar larvae, white prepupae, and 1 day adults. The effects of peptides and physiological saline, the carrier, were measured on both females and males; no sex-specific response was observed. The in vivo semi-isolated heart rate assays were performed according to a previously reported protocol. The rate of heart contractions for each animal was measured prior to application of a peptide (1 µM) or saline, the carrier, to provide a measure of basal rate. Animals (n≥6) were used only once. During and after delivery of the peptide or saline, contractions were continuously recorded for a 10-minute time period. The data analyzed were the maximum responses within the 10-minute recording period reported as mean values ± S.E.M. Data are reported as % basal heart rate where the frequency of contractions before application of peptide or saline is considered a measure of the baseline or basal level. Effects of peptides were compared to saline using Single Factor ANOVA with significance set at p ≤ 0.01; a peptide was considered to be active if its effects were statistically different from saline. The statistical outcomes were identical when calculated using two different data packages, Microsoft Excel and IBM SPSS.

[3] = Chinese hamster ovary cells, read-out: EC50, ligand-FMRFa-R binding
[4] = read-out: EC50, peptides bind FMRFa-R

AMRF-NH2 [analog replacing F1 with A]
EC50 [1, 3]: 3220 nM

DPKQDFMRF-NH2 [D. melanogaster FMRF-NH2 peptide encoded in dFMRFa]
% increase in heart rate, Adult [2]: 44±11% | % increase in heart rate, Larval [2]: 20±5% | % increase in heart rate, Pupal [2]: 21±5% | EC50 [1, 4]: 2 nM

FMRF-NH2 [conserved C-terminal tetrapeptide; molluscan cardioexcitatory tetrapeptide]
% increase in heart rate, Adult [2]: 37±11% | % increase in heart rate, Larval [2]: 28±8% | % increase in heart rate, Pupal [2]: 17±4% | EC50 [1, 3]: 28 nM

PDNFMRF-NH2 [D. melanogaster FMRF-NH2 peptide encoded in dFMRFa]
% increase in heart rate, Adult [2]: 51±12% | % increase in heart rate, Larval [2]: 26±5% | % increase in heart rate, Pupal [2]: 27±7% | heart rate return to baseline ([2]; pupal heart, recording period): did not return to baseline within the recording period | EC50 [1, 4]: 1.8 nM

SDNAMRF-NH2 [designed analog of SDNFMRF-NH2 with F to A substitution]
% increase in heart rate, Adult [2]: 48±10% | EC50 [1, 3]: 102 nM

SDNFMRF-NH2 [D. melanogaster FMRF-NH2 peptide encoded in dFMRFa]
% increase in heart rate, Adult [2]: 39±11% | % increase in heart rate, Larval [2]: 24±8% | % increase in heart rate, Pupal [2]: 15±4% | EC50 [1, 3]: 1.9 nM

SPKQDFMRF-NH2 [D. melanogaster FMRF-NH2 peptide encoded in dFMRFa]
% increase in heart rate, Adult [2]: 32±8% | % increase in heart rate, Larval [2]: 23±6% | % increase in heart rate, Pupal [2]: 12±1% | EC50 [1, 4]: 2.5 nM

TPAEDFMRF-NH2 [D. melanogaster FMRF-NH2 peptide encoded in dFMRFa]
% increase in heart rate, Adult [2]: 40±2% | % increase in heart rate, Larval [2]: 20±4% | % increase in heart rate, Pupal [2]: 26±8% | EC50 [1, 4]: 2.8 nM

YMRF-NH2 [analog in which Y replaced F1]
EC50 [1, 3]: 31 nM
